# Test results taken from US8372866B2, “2-aryl and 2-heteroaryl 4H-1-benzopyran-4-one-6-amidino derivatives, new pharmacological agents for the treatment of arthritis, cancer and related pain” (Rottapharm S.p.A., priority 2008, dated 2013).
# Structures can show the parent of a compound that is named as a salt. Where two headings read alike, the source gives them in different places.
# Key:
# [1] = tested on: CFA-induced prolonged inflammation; experiment: CFA model of chronic inflammatory pain (Randall-Selitto); assay type: in vivo, rat; settings: for MPE 0.5 hrs / MPE 1.5 hrs / MPE 3 hrs / MPE 6 hrs / MPE 24 hrs: NE = not effective; for ED100 0.5 hrs: IP, calculated from the MPE data at 0.5 hrs; for ED50: Rattus norvegicus, ip, 0.5 h, read-out: ED50 0.5 hrs
# [2] = molecular target: T1, recombinant human aggrecanase 1 (ADAMTS-4) (Homo sapiens, UniProt O75173); experiment: InviLISA Aggrecanase activity assay, aggrecanase 1; assay type: biochemical; settings: inhibitors tested at 10 μM final concentration
# T1 construct: ADAMTS-4 aminoacids F213-A579 with C-terminal tag; purchased Invitek GmbH, Berlin
# T1 sequence (O75173 213-579): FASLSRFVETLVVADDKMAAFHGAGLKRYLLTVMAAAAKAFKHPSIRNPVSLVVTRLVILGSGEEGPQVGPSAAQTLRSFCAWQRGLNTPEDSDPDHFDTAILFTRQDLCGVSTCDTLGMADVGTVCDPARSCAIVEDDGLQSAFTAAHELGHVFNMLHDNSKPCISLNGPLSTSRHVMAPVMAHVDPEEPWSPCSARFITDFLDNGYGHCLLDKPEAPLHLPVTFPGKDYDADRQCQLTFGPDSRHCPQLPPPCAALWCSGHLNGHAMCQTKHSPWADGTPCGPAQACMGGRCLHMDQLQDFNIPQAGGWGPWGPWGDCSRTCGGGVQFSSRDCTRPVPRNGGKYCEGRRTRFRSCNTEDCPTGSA
# Method: (§1) The InviLISA Aggrecanase activity assay (Invitek GmbH, Berlin) was used to screen and characterise aggrecanase inhibitors. The assay was carried out in two steps, according to Will et al. (Will H, Dettloff M, Bendzko P, Svenshnikov P, A Quantitative Assay for aggrecanase Activity; 2005, Journal of Biomolecular Techniques, 16 (4), 459-472). A recombinant fragment of human aggrecan interglobular domain (aggrecan-IGD; T331-G458) is first digested with aggrecanase. Proteolytic cleavage of the substrate releases an aggrecan peptide with the N-terminal sequence ARGSVIL (ARGSVIL-peptide), that was then quantified with two monoclonal anti-peptide antibodies (ELISA module). For precise calculation of product, ARGSVIL-peptide standard concentrations were run in parallel.
# (§2) 1) Proteolysis of aggrecan-IGD by aggrecanase. Aggrecan-IGD was incubated with standard recombinant human aggrecanase 1 (ADAMTS-4 aminoacids F213-A579 with C-terminal tag) or standard recombinant human aggrecanase 2 (ADAMTS-5 aminoacids S262-G625 with C-terminal tag) in the absence (total enzymatic activity) or presence (modulated enzymatic activity) of inhibitors to be tested. Enzymes were pre-incubated with the inhibitors or the appropriate concentration of diluent as control (DMSO 0.25% final concentration in proteolysis), at 4° C. for 30 min prior to assaying their activity. Five microliters of mix enzyme-inhibitor were added to the substrate (0.1 μM final concentration) in a total volume of 100 μL and incubated for 15 minutes at 37° C. The reaction was terminated with EDTA-containing buffer. The inhibitors were tested at 10 μM final concentration and compounds achieving ≧50% inhibitory effect were evaluated for IC50 calculation, in a range generally extended from 0.1 to 10 μM final concentration.
# (§3) 2) Aggrecan peptide ELISA. ARGSVIL-peptide standard, proteolytic digestion of Aggrecan-IGD with standard aggrecanases and test samples were incubated in microtiter wells pre-coated with anti-ARGSVIL-neoepitope antibody. ARGSVIL-peptide is bound to the coated antibody, while other components are removed by washing and aspiration. The bound ARGSVIL-peptide was detected with a second peroxidase-labelled antibody. Any excess of the conjugate was removed by washing and aspiration. The amount of peroxidase bound to different wells was determined in reactions with peroxidase substrate TMB. The reactions are stopped by addition of sulphuric acid solution and absorbance is read at 450 nm in a microtiter plate spectrophotometer.
# [3] = tested on: mechanical hyperalgesia associated with STZ-induced diabetes; experiment: STZ-induced diabetes mechanical hyperalgesia, model of neuropathic pain (Randall-Selitto); assay type: in vivo, rat
# Method: Painful diabetic neuropathy is one of the most common complications of insulin-dependent diabetes in man; in particular, diabetes can be associated with neuropathic pain which fails to be treated by classical analgesics. Streptozotocin (STZ)-induced diabetes in the rat has been increasingly used as a model of painful diabetic neuropathy to assess the efficacies of potential analgesic agents (C. Courteix, Pain 1993, 53, 81-8). A representative compound of the invention was tested for efficacy in reducing mechanical hyperalgesia associated with STZ-induced diabetes in the rat, according to the experimental model as described by the literature. Diabetes was produced with the injection of a single dose (75 mg/Kg i.p.) of STZ. In the following four weeks after the induction of diabetes the clinical symptoms (weight, body and skin temperature, motility and hyperglycemia) progressively developed by the animals, are strictly monitored.
# After four weeks, the scores obtained in diabetic rats to various pain stimuli (in particular mechanical stimuli) were greater than those in normal rats, indicating hyperalgesia. The hyperalgesia induced by diabetes was evaluated using the Randall-Selitto method as above described, and quantitated using the analgesimeter. Also in this case, the difference in the mechanical pain threshold between the basal value (generally 230-250 g) and the one tolerated by the animals treated with the drug, is defined as mechanical hyperalgesia. The compound of the invention was administered i.p. (solution, Tween 80, 10% in saline) at different doses, and mechanical hyperalgesia was measured at the reported time, as maximum percent effect (MPE) which represents the difference (%) in pain threshold between the animals treated with the drug and the controls that received only the vehicle, compared with the weight borne by naïf non-diabetic controls. A 100% protection means that the diabetic animals treated with the compound can tolerate the same stimulus (weight) as the naïf non-diabetic animals. MPE higher than 100% means that the diabetic animal treated with the compound can tolerate stimuli (weight) higher than the control non-diabetic animals (hypoalgesia).
# In Table 4, the effect of a representative compound of formula (I), in the above described model of neuropathic pain, is compared with some known pharmacological standards used for the clinical treatment of this pathology. In particular, from the MPE data at 0.5 hrs, the doses yielding a protection of 50% (ED50) and 100% (ED100) have been calculated.
# [4] = molecular target: T2, recombinant human aggrecanase 2 (ADAMTS-5) (Homo sapiens, UniProt Q9UNA0); experiment: InviLISA Aggrecanase activity assay, aggrecanase 2; assay type: biochemical; settings: for inhibition at 10 µM: inhibitors tested at 10 μM final concentration
# T2 construct: ADAMTS-5 aminoacids S262-G625 with C-terminal tag; purchased Invitek GmbH, Berlin
# T2 sequence (Q9UNA0 262-625): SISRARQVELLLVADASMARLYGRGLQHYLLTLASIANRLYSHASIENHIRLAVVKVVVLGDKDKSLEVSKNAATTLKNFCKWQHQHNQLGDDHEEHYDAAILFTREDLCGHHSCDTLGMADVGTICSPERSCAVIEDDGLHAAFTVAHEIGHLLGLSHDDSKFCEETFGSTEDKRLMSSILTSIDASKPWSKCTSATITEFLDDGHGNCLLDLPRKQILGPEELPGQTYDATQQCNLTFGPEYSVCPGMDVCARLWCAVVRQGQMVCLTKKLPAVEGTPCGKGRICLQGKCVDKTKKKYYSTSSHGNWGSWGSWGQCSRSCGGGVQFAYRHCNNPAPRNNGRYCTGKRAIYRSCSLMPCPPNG
# Method: as §1, §2, §3
# [5] = tested on: Zymosan-induced mechanical hyperalgesia; experiment: Zymosan-induced mechanical hyperalgesia (Randall-Selitto), model of inflammatory pain; assay type: in vivo, rat; settings: for ED50: read-out: ED50 4 hrs
# Method: In this model, typically a male Sprague-Dawley or Wistar rat (200-250 g) receives an interplantar injection of 3 mg/100 μl zymosan into one hind paw. A marked inflammation occurs in this hind paw. Drugs are administered orally for evaluation of efficacy, 30 min. before the inflammatory insult. […] The quantisation of the analgesic effect is achieved by an analgesimeter, which consists in applying to the inflamed paw an increasing weight (from 130-140 g up to 500 g). […] For each test compound, at least three doses were used, with 8 animals per group. Compounds of the invention were tested at 10, 20 and 40 mg/Kg.
# [6] = 10 mg/Kg IP, NE = not effective
# [7] = 30 mg/Kg IP, NE = not effective
# [8] = rat, OS, 4 hrs after zymosan, NC = not calculable
# [9] = 50 mg/Kg IP, NE = not effective
compound,measurement,setting,value
"CC(=N)Nc1ccc2oc(-c3ccc4c(c3)CCO4)c(O)c(=O)c2c1 (as salt: hydrochloride) [Example 15, 2-(dihydrobenzofuran-5-yl)-3-hydroxy-6-[(1-iminoethyl)amino]-4H-1-benzopyran-4-one hydrochloride]",melting point,,291 to 292 °C
"CC(=N)Nc1ccc2oc(-c3cccc(-n4ccnc4)c3)c(O)c(=O)c2c1 (as salt: hydrochloride) [Example 8, 2-[(3-(imidazol-1-yl)-phenyl]-3-hydroxy-6-[(1-iminoethyl)amino]-4H-1-benzopyran-4-one dihydrochloride]",melting point,,281 to 281.5 °C
"N=C(CC1CC1)Nc1ccc2oc(-c3ccc(-n4ccnc4)cc3)c(O)c(=O)c2c1 (as salt: hydrochloride) (hydrate or solvate) [Example 6, 2-[(4-imidazol-1-yl)-phenyl]-3-hydroxy-6-[(1-iminoethyl-2-cyclopropyl)amino]-4H-1-benzopyran-4-one dihydrochloride monohydrate]",melting point,,249.1 to 251.1 °C
"CC(=N)Nc1ccc2oc(-c3ccc(-n4ccnc4)cc3)c(O)c(=O)c2c1 (as salt: hydrochloride) [Example 5, 2-[(4-imidazol-1-yl)-phenyl]-3-hydroxy-6-[(1-iminoethyl)amino]-4H-1-benzopyran-4-one hydrochloride]",melting point,,311.7 to 312.1 °C
"CC(=N)Nc1ccc2oc(-c3ccccc3)cc(=O)c2c1 [Example 1, 2-phenyl-6-[(1-iminoethyl)amino]-4H-1-benzopyran-4-one hydrochloride]",MPE 0.5 hrs,[1]; 3 mg/Kg IP,30%
same,MPE 1.5 hrs,[1]; 3 mg/Kg IP,50%
same,MPE 3 hrs,[1]; 3 mg/Kg IP,40%
same,MPE 0.5 hrs,[1]; 10 mg/Kg IP,62%
same,MPE 1.5 hrs,[1]; 10 mg/Kg IP,39%
same,MPE 0.5 hrs,[1]; 30 mg/Kg IP,261%
same,MPE 1.5 hrs,[1]; 30 mg/Kg IP,190%
same,MPE 3 hrs,[1]; 30 mg/Kg IP,37%
same,ED100 0.5 hrs,[1],8.06 mg/kg
same,ED50,[1],4.86 mg/kg
same,inhibition at 10 µM,[2],10%
same,MPE 0.5 hrs,"[3]; 3 mg/Kg IP, NE = not effective",74%
same,MPE 1.5 hrs,"[3]; 3 mg/Kg IP, NE = not effective",25%
same,MPE 0.5 hrs,[3]; [6],109%
same,MPE 1.5 hrs,[3]; [6],54%
same,MPE 0.5 hrs,[3]; [7],113%
same,MPE 1.5 hrs,[3]; [7],39%
same,MPE 3 hrs,[3]; [7],39%
same,MPE 6 hrs,[3]; [7],31%
same,protection,[3]; at the doses of 10 and 30 mg/kg,higher than 100%
same,efficacy in STZ neuropathic pain paradigm,"[3]; rat, in vivo",high efficacy
same,inhibition at 10 µM,[4],30%
same,ED50,"[5]; Rattus norvegicus, 4 h",7.9 mg/kg
same,ED100 4 hrs,[5]; [8],19 mg/kg
"CC(=N)Nc1ccc2oc(-c3ccc4c(c3)OCO4)cc(=O)c2c1 [Example 4, 2-(benzo[1,3]dioxol-5-yl)-6-[(1-iminoethyl)amino]-4H-1-benzopyran-4-one hydrochloride]",inhibition at 10 µM,[2],40%
same,inhibition at 10 µM,[4],10%
same,ED50,"[5]; Rattus norvegicus, 4 h",12 mg/kg
same,ED100 4 hrs,[5]; [8],35 mg/kg
COc1cccc(C2(O)CCCCC2CN(C)C)c1 (stereo not shown) [Tramadol],MPE 0.5 hrs,"[3]; 3 mg/Kg IP, NE = not effective",26%
same,MPE 1.5 hrs,"[3]; 3 mg/Kg IP, NE = not effective",53%
same,MPE 0.5 hrs,[3]; [6],58%
same,MPE 1.5 hrs,[3]; [6],48%
same,MPE 3 hrs,[3]; [6],27%
same,MPE 0.5 hrs,[3]; [7],54%
same,MPE 1.5 hrs,[3]; [7],64%
same,MPE 3 hrs,[3]; [7],23%
same,MPE 0.5 hrs,[3]; [9],81%
same,MPE 1.5 hrs,[3]; [9],60%
same,MPE 3 hrs,[3]; [9],43%
same,ED50,"[3]; Rattus norvegicus, ip, 0.5 h, read-out: ED50 0.5 hrs, IP, calculated from the MPE data at 0.5 hrs, NC = not calculable",10.9 mg/kg
same,ED50,"[5]; Rattus norvegicus, 4 h",25.7 mg/kg
"COCCC(=N)Nc1ccc2oc(-c3ccc4c(c3)OCO4)c(O)c(=O)c2c1 [Example 19, 2-(benzo[1,3]dioxol-5-yl)-3-hydroxy-6-[(1-iminopropyl-3-methoxy)amino]-4H-1-benzopyran-4-one hydrochloride]",inhibition at 10 µM,[2],0%
same,IC50,[4],8 µM
"CC(=N)Nc1ccc2oc(-c3ccc(F)cc3)cc(=O)c2c1 [Example 3, 2-(4-fluorophenyl)-6-[(1-iminoethyl)amino]-4H-1-benzopyran-4-one]",inhibition at 10 µM,[2],40%
same,IC50,[4],10 µM
same,ED100 4 hrs,[5]; [8],24 mg/kg
same,ED50,[5]; [8],12 mg/kg
"COc1ccc(-c2cc(=O)c3cc(NC(C)=N)ccc3o2)cc1 [Example 2, 2-(4-methoxyphenyl)-6-[(1-iminoethyl)amino]-4H-1-benzopyran-4-one hydrochloride monohydrate]",MPE 0.5 hrs,[1]; 3 mg/Kg IP,91%
same,MPE 1.5 hrs,[1]; 3 mg/Kg IP,87%
same,MPE 3 hrs,[1]; 3 mg/Kg IP,32%
same,MPE 0.5 hrs,[1]; 10 mg/Kg IP,193%
same,MPE 1.5 hrs,[1]; 10 mg/Kg IP,105%
same,MPE 3 hrs,[1]; 10 mg/Kg IP,42%
same,MPE 6 hrs,[1]; 10 mg/Kg IP,43%
same,MPE 24 hrs,[1]; 10 mg/Kg IP,38%
same,MPE 0.5 hrs,[1]; 30 mg/Kg IP,254%
same,MPE 1.5 hrs,[1]; 30 mg/Kg IP,190%
same,MPE 3 hrs,[1]; 30 mg/Kg IP,146%
same,MPE 6 hrs,[1]; 30 mg/Kg IP,89%
same,MPE 24 hrs,[1]; 30 mg/Kg IP,45%
same,ED100 0.5 hrs,[1],3.15 mg/kg
same,ED50,[1],1.56 mg/kg
same,inhibition at 10 µM,[2],30%
same,inhibition at 10 µM,[4],30%
same,ED50,"[5]; Rattus norvegicus, 4 h",6.5 mg/kg
same,ED100 4 hrs,[5]; [8],18 mg/kg
"CS(=O)(=O)Nc1ccc([N+](=O)[O-])cc1Oc1ccccc1 [Nimesulide, reference compound]",ulcerative side effects,[5]; even at the higher doses tested,ulcerative side effects
same,ED50,[5]; [8],5 mg/kg
"Cc1ccc(-c2cc(C(F)(F)F)nn2-c2ccc(S(N)(=O)=O)cc2)cc1 [Celecoxib, reference compound]",ED50,[5]; [8],9 mg/kg
